Results taken from patent US12435092B2, “Substituted imidazo[1,2-A]quinazolines as inhibitors of PARG” (858 Therapeutics, Inc., priority 2022, dated 2025).

Molecular target: T1, cellular PARG (Homo sapiens, UniProt Q86W56)
T1 construct: endogenous in cells; host or cells: HeLa
Experiment: Nuclear PAR accumulation assay (immunofluorescence high-content imaging)
Type: cell-based
Conditions: HeLa cells, 1 hour compound treatment then MMS 50 μg/mL for an additional hour
Protocol: Compound IC50 values for inhibition of cellular PARG were determined using an immunofluorescence high-content imaging assay for nuclear PAR accumulation. HeLa cells were plated at 15,000 cells/well in a 96-well plate the day before compound treatment and then treated with varying concentrations of test compound and incubated for 1 hour at 37° C.+5% CO2. Following test compound treatment, methylmethane sulfonate (MMS) was added to a final concentration of 50 μg/mL and the cells were incubated for an additional hour. Following treatment, the cells were fixed with ice cold 95% methanol and the plates sealed and placed at −20° C. for 15 minutes. The cells were then washed once with phosphate buffered saline (PBS) and permeabilized with 0.1% Triton-X 100 for 20 minutes at room temperature. The cells were again washed once with PBS and incubated with an anti-poly-ADP ribose (PAR) monoclonal antibody (Millipore Part #AM80 clone 10H) diluted 1:1,000 in 5% fetal bovine serum +0.1% Tween-20+PBS overnight at 4° C. The cells were then washed three times with PBS before incubation with a fluorescently conjugated goat anti-mouse antibody (Invitrogen A32723) diluted 1:500 in 5% FBS+0.1% Tween-20+PBS for 1 hour at room temperature. The cells were again washed three times with PBS and the nuclei labeled by incubating with 1 μg/mL DAPI (4′,6-diamidino-2-phenylindole). Nuclear PAR accumulation was evaluated using high-content fluorescence microscopy. Four fields for each well were acquired at 20× magnification resulting in at least 1,000 cells analyzed per well. Using high-content software (CellReporterXpress) the nuclei were detected and segmented using the DAPI channel and the fluorescence intensity of the PAR-Alexa 488 channel was quantified within the nuclei regions. Both the average intensity per nucleus and percent PAR positive cells were quantified. Percent PAR positive cells were identified by having greater anti-PAR labeling above the threshold set with vehicle DMSO treated control cells. Percent inhibition of PARG by test compounds was calculated by normalizing the data to the 0.1% DMSO and reference compound control values, which represent 0% and 100% inhibition of enzymatic activity, respectively. Concentration-response-curves and IC50 values were generated using four parameter logistic curve fit software.

T1 sequence (Q86W56 whole entry): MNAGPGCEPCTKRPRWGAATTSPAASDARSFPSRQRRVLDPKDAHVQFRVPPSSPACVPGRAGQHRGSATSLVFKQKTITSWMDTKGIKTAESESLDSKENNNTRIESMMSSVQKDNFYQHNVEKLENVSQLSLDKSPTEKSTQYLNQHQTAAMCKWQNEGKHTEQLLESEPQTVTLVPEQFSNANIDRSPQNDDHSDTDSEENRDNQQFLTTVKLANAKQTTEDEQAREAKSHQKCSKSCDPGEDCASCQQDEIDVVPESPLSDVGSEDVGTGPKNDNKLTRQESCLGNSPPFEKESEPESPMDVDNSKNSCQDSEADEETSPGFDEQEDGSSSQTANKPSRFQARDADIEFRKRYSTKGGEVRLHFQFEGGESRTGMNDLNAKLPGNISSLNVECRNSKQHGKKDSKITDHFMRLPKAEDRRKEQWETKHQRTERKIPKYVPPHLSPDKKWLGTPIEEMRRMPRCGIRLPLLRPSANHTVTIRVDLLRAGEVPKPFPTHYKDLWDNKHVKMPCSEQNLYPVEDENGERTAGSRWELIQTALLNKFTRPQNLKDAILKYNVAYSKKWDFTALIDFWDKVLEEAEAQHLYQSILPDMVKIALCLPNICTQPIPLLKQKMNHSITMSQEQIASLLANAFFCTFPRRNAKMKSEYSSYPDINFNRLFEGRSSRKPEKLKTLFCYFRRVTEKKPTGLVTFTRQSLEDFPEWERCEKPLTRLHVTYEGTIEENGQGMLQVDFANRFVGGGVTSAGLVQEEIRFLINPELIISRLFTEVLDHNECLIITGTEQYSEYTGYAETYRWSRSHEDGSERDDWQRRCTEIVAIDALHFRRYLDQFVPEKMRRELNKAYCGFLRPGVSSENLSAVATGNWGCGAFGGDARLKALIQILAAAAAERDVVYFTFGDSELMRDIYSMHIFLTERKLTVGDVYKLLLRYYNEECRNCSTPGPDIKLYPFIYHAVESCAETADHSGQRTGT

| SMILES | IC50 [nM] |
| --- | --- |
| C[C@@H]1CN=C2N(CC3CC(=O)N(C)C3)C(=O)c3cc(S(=O)(=O)NC4(C)CC4)ccc3N21 (single isomer, unassigned) [Example 123] | 1000 to 10000 |
| CC(c1cnn(C)c1)N1C(=O)c2cc(S(=O)(=O)NC3(C)CC3)ccc2N2C1=NC[C@H]2C (single isomer, unassigned) [Example 125] | 1000 to 10000 |
| CC(c1cnn(C)c1)N1C(=O)c2cc(S(=O)(=O)NC3(C)CC3)ccc2N2C1=NC[C@H]2C (single isomer, unassigned) [Example 126] | 1000 to 10000 |
| C[C@@H]1CN=C2N(Cc3cnn(CCO)c3)C(=O)c3cc(S(=O)(=O)NC4(C)CC4)ccc3N21 [Example 1, (R)-4-((1-(2-hydroxyethyl)-1H-pyrazol-4-yl)methyl)-1-methyl-N-(1-methylcyclopropyl)-5-oxo-1,2,4,5-tetrahydroimidazo[1,2-a]quinazoline-7-sulfonamide] | 100 to 1000 |
| C[C@@H]1CN=C2N(Cc3cnn(C)c3)C(=O)c3cc(S(=O)(=O)NC4(C#N)CC4)ccc3N21 [Example 2, (R)—N-(1-cyanocyclopropyl)-1-methyl-4-((1-methyl-1H-pyrazol-4-yl)methyl)-5-oxo-1,2,4,5-tetrahydroimidazo[1,2-a]quinazoline-7-sulfonamide] | 100 to 1000 |
| C[C@@H]1CN=C2N(CC3CC3)C(=O)c3cc(S(=O)(=O)NC4(C)CC4)ccc3N21 [Example 3, (R)-4-(cyclopropylmethyl)-1-methyl-N-(1-methylcyclopropyl)-5-oxo-1,2,4,5-tetrahydroimidazo[1,2-a]quinazoline-7-sulfonamide] | 100 to 1000 |
| C[C@@H]1CN=C2N(Cc3cccnc3)C(=O)c3cc(S(=O)(=O)NC4(C)CC4)ccc3N21 [Example 4, (R)-1-methyl-N-(1-methylcyclopropyl)-5-oxo-4-(pyridin-3-ylmethyl)-1,2,4,5-tetrahydroimidazo[1,2-a]quinazoline-7-sulfonamide] | 100 to 1000 |
| Cc1cc(CN2C(=O)c3cc(S(=O)(=O)NC4(C)CC4)ccc3N3C2=NC[C@H]3C)n[nH]1 [Example 5, (R)-1-methyl-4-((5-methyl-1H-pyrazol-3-yl)methyl)-N-(1-methylcyclopropyl)-5-oxo-1,2,4,5-tetrahydroimidazo[1,2-a]quinazoline-7-sulfonamide] | 100 to 1000 |
| C[C@@H]1CN=C2N(Cc3cn[nH]c3)C(=O)c3cc(S(=O)(=O)NC4(C)CC4)ccc3N21 [Example 6, (R)-4-((1H-pyrazol-4-yl)methyl)-1-methyl-N-(1-methylcyclopropyl)-5-oxo-1,2,4,5-tetrahydroimidazo[1,2-a]quinazoline-7-sulfonamide] | 100 to 1000 |
| Cc1noc(C)c1CN1C(=O)c2cc(S(=O)(=O)NC3(C)CC3)ccc2N2C1=NC[C@H]2C [Example 8, (R)-4-((3,5-dimethylisoxazol-4-yl)methyl)-1-methyl-N-(1-methylcyclopropyl)-5-oxo-1,2,4,5-tetrahydroimidazo[1,2-a]quinazoline-7-sulfonamide] | ≤ 100 |
| C#C[C@H]1CN=C2N(Cc3cc(C)no3)C(=O)c3cc(S(=O)(=O)NC4(C)CC4)ccc3N21 [Example 9, (S)-1-ethynyl-N-(1-methylcyclopropyl)-4-((3-methylisoxazol-5-yl)methyl)-5-oxo-1,2,4,5-tetrahydroimidazo[1,2-a]quinazoline-7-sulfonamide] | 100 to 1000 |
| C#C[C@@H]1CN=C2N(Cc3cc(C)no3)C(=O)c3cc(S(=O)(=O)NC4(C)CC4)ccc3N21 [Example 10, (R)-1-ethynyl-N-(1-methylcyclopropyl)-4-((3-methylisoxazol-5-yl)methyl)-5-oxo-1,2,4,5-tetrahydroimidazo[1,2-a]quinazoline-7-sulfonamide] | ≤ 100 |
| Cc1cc(CN2C(=O)c3cc(S(=O)(=O)NC4(C)CC4)ccc3N3C2=NC[C@@H]3C(C)C)on1 [Example 11, (S)-1-isopropyl-N-(1-methylcyclopropyl)-4-((3-methylisoxazol-5-yl)methyl)-5-oxo-1,2,4,5-tetrahydroimidazo[1,2-a]quinazoline-7-sulfonamide] | > 10000 |
